{"source": "patent US20250295646A1", "about": "“METHODS OF USE OF T-TYPE CALCIUM CHANNEL MODULATORS” (Praxis Precision Medicines, Inc., priority 2022, published 2025)", "key": {"[1]": {"tested_on": "adult patients with essential tremor", "assay": "Example 16: Patient Global Impression of Change (PGI-C)", "type": "in vivo, human", "details": "for participants with PGI-C score minimally improved: Part A; for participants with PGI-C much improved / participants with PGI-C score reflecting no change in symptoms: Part B OLT", "description": "Patients were scheduled for Safety Follow-up on Day 70 (±1 day) in the clinic for the final clinical trial assessment."}, "[2]": {"assay": "Food effect (high-fat, high-calorie meal) on pharmacokinetics, single 20 mg dose", "type": "in vivo, human", "details": "for Tmax / AUC(0-t) / AUC(0-inf) / Cmax: human, plasma, 20 mg; for Tmax: oral, single 20 mg; for AUC(0-t) / AUC(0-inf) / Cmax: po", "method": "The effect of a high-fat, high-calorie meal on the pharmacokinetics of a compound of formula (II) was evaluated in an open-label, sequential fashion following a single 20 mg dose of formulation 5 in participants who had previously received a 20 mg dose of formulation 5 under fasted conditions."}, "[3]": {"details": "Part B RWD (RWAS), Day 56, n 6, change from randomization baseline"}}, "note": "Read-outs that look alike come from different tables or passages of the source.", "data": [{"smiles": "CC(C)(C)NC(=O)CN1CCC(CNC(=O)c2cc(F)cc(Cl)c2)CC1", "note": "[compound of formula (I), N-((1-(2-(tert-butylamino)-2-oxoethyl)piperidin-4-yl)methyl)-3-chloro-5-fluorobenzamide]", "values": [{"measurement": "PGI-C Score 1 very much improved", "setting": "[1]; Part A (FAS), Day 7, n 6", "value": "0 n (%)"}, {"measurement": "PGI-C Score 2 Much improved", "setting": "[1]; Part A (FAS), Day 7, n 6", "value": "1 n (%)"}, {"measurement": "PGI-C Score 3 minimally improved", "setting": "[1]; Part A (FAS), Day 7, n 6", "value": "2 (33.3) n (%)"}, {"measurement": "PGI-C Score 4 no change", "setting": "[1]; Part A (FAS), Day 7, n 6", "value": "2 (33.3) n (%)"}, {"measurement": "PGI-C Score 5 minimally worse", "setting": "[1]; Part A (FAS), Day 7, n 6", "value": "0 n (%)"}, {"measurement": "PGI-C Score 6 much worse", "setting": "[1]; Part A (FAS), Day 7, n 6", "value": "1 (16.7) n (%)"}, {"measurement": "PGI-C Score 7 very much worse", "setting": "[1]; Part A (FAS), Day 7, n 6", "value": "0 n (%)"}, {"measurement": "PGI-C Score 1 very much improved", "setting": "[1]; Part A (FAS), Day 14, n 6", "value": "0 n (%)"}, {"measurement": "PGI-C Score 2 Much improved", "setting": "[1]; Part A (FAS), Day 14, n 6", "value": "1 n (%)"}, {"measurement": "PGI-C Score 3 minimally improved", "setting": "[1]; Part A (FAS), Day 14, n 6", "value": "5 (83.3) n (%)"}, {"measurement": "PGI-C Score 4 no change", "setting": "[1]; Part A (FAS), Day 14, n 6", "value": "0 n (%)"}, {"measurement": "PGI-C Score 5 minimally worse", "setting": "[1]; Part A (FAS), Day 14, n 6", "value": "0 n (%)"}, {"measurement": "PGI-C Score 6 much worse", "setting": "[1]; Part A (FAS), Day 14, n 6", "value": "0 n (%)"}, {"measurement": "PGI-C Score 7 very much worse", "setting": "[1]; Part A (FAS), Day 14, n 6", "value": "0 n (%)"}, {"measurement": "participants with PGI-C score minimally improved", "setting": "[1]; Day 7", "value": 33.3, "unit": "%"}, {"measurement": "participants with PGI-C score minimally improved", "setting": "[1]; Day 14", "value": 83.3, "unit": "%"}, {"measurement": "PGI-C Score 1 very much improved", "setting": "[1]; Part B OLT (FAS), Day 7, n 13", "value": "0 n (%)"}, {"measurement": "PGI-C Score 2 Much improved", "setting": "[1]; Part B OLT (FAS), Day 7, n 13", "value": "1 n (%)"}, {"measurement": "PGI-C Score 3 minimally improved", "setting": "[1]; Part B OLT (FAS), Day 7, n 13", "value": "5 (38.5) n (%)"}, {"measurement": "PGI-C Score 4 no change", "setting": "[1]; Part B OLT (FAS), Day 7, n 13", "value": "7 (53.8) n (%)"}, {"measurement": "PGI-C Score 5 minimally worse", "setting": "[1]; Part B OLT (FAS), Day 7, n 13", "value": "0 n (%)"}, {"measurement": "PGI-C Score 6 much worse", "setting": "[1]; Part B OLT (FAS), Day 7, n 13", "value": "0 n (%)"}, {"measurement": "PGI-C Score 7 very much worse", "setting": "[1]; Part B OLT (FAS), Day 7, n 13", "value": "0 n (%)"}, {"measurement": "PGI-C Score 1 very much improved", "setting": "[1]; Part B OLT (FAS), Day 21, n 12", "value": "0 n (%)"}, {"measurement": "PGI-C Score 2 Much improved", "setting": "[1]; Part B OLT (FAS), Day 21, n 12", "value": "1 n (%)"}, {"measurement": "PGI-C Score 3 minimally improved", "setting": "[1]; Part B OLT (FAS), Day 21, n 12", "value": "5 (41.7) n (%)"}, {"measurement": "PGI-C Score 4 no change", "setting": "[1]; Part B OLT (FAS), Day 21, n 12", "value": "6 (50.0) n (%)"}, {"measurement": "PGI-C Score 5 minimally worse", "setting": "[1]; Part B OLT (FAS), Day 21, n 12", "value": "0 n (%)"}, {"measurement": "PGI-C Score 6 much worse", "setting": "[1]; Part B OLT (FAS), Day 21, n 12", "value": "0 n (%)"}, {"measurement": "PGI-C Score 7 very much worse", "setting": "[1]; Part B OLT (FAS), Day 21, n 12", "value": "0 n (%)"}, {"measurement": "PGI-C Score 1 very much improved", "setting": "[1]; Part B OLT (FAS), Day 42, n 11", "value": "0 n (%)"}, {"measurement": "PGI-C Score 2 Much improved", "setting": "[1]; Part B OLT (FAS), Day 42, n 11", "value": "3 n (%)"}, {"measurement": "PGI-C Score 3 minimally improved", "setting": "[1]; Part B OLT (FAS), Day 42, n 11", "value": "4 (36.4) n (%)"}, {"measurement": "PGI-C Score 4 no change", "setting": "[1]; Part B OLT (FAS), Day 42, n 11", "value": "4 (36.4) n (%)"}, {"measurement": "PGI-C Score 5 minimally worse", "setting": "[1]; Part B OLT (FAS), Day 42, n 11", "value": "0 n (%)"}, {"measurement": "PGI-C Score 6 much worse", "setting": "[1]; Part B OLT (FAS), Day 42, n 11", "value": "0 n (%)"}, {"measurement": "PGI-C Score 7 very much worse", "setting": "[1]; Part B OLT (FAS), Day 42, n 11", "value": "0 n (%)"}, {"measurement": "participants with PGI-C much improved", "setting": "[1]; Day 7", "value": 7.7, "unit": "%"}, {"measurement": "participants with PGI-C score reflecting no change in symptoms", "setting": "[1]; Day 7", "value": 53.8, "unit": "%"}, {"measurement": "participants with PGI-C much improved", "setting": "[1]; Day 42", "value": 27.3, "unit": "%"}, {"measurement": "participants with PGI-C score reflecting no change in symptoms", "setting": "[1]; Day 42", "value": 36.4, "unit": "%"}, {"measurement": "PGI-C Score 1 very much improved", "setting": "[1]; [3]", "value": "0 n (%)"}, {"measurement": "PGI-C Score 2 Much improved", "setting": "[1]; [3]", "value": "0 n (%)"}, {"measurement": "PGI-C Score 3 minimally improved", "setting": "[1]; [3]", "value": "2 (33.3) n (%)"}, {"measurement": "PGI-C Score 4 no change", "setting": "[1]; [3]", "value": "3 (50.0) n (%)"}, {"measurement": "PGI-C Score 5 minimally worse", "setting": "[1]; [3]", "value": "0 n (%)"}, {"measurement": "PGI-C Score 6 much worse", "setting": "[1]; [3]", "value": "0 n (%)"}, {"measurement": "PGI-C Score 7 very much worse", "setting": "[1]; [3]", "value": "1 (16.7) n (%)"}]}, {"smiles": "CC(C)(C)NC(=O)CN1CCC(CNC(=O)c2cc(F)cc(Cl)c2)CC1.Cl", "note": "[compound of formula (II), N-((1-(2-(tert-butylamino)-2-oxoethyl)piperidin-4-yl)methyl)-3-chloro-5-fluorobenzamide hydrochloride]", "values": [{"measurement": "Tmax", "setting": "[2]; fasted", "value": 4, "unit": "h"}, {"measurement": "Tmax", "setting": "[2]; high-fat, high-calorie meal", "value": 5, "unit": "h"}, {"measurement": "AUC(0-t)", "setting": "[2]; single 20 mg oral dose, fasted, read-out: AUClast, Fasted Geometric Mean (Adjusted)", "value": 905, "unit": "ng·h/mL"}, {"measurement": "AUC(0-inf)", "setting": "[2]; single 20 mg oral dose, fasted, read-out: AUC∞, Fasted Geometric Mean (Adjusted)", "value": 942, "unit": "ng·h/mL"}, {"measurement": "Cmax", "setting": "[2]; single 20 mg oral dose, fasted, read-out: Cmax, Fasted Geometric Mean (Adjusted)", "value": 43.6, "unit": "ng/mL"}, {"measurement": "AUC(0-t)", "setting": "[2]; single 20 mg oral dose, high-fat/high-calorie meal, read-out: AUClast, Fed Geometric Mean (Adjusted)", "value": 1040, "unit": "ng·h/mL"}, {"measurement": "AUC(0-inf)", "setting": "[2]; single 20 mg oral dose, high-fat/high-calorie meal, read-out: AUC∞, Fed Geometric Mean (Adjusted)", "value": 1080, "unit": "ng·h/mL"}, {"measurement": "Cmax", "setting": "[2]; single 20 mg oral dose, high-fat/high-calorie meal, read-out: Cmax, Fed Geometric Mean (Adjusted)", "value": 64.7, "unit": "ng/mL"}, {"measurement": "AUClast Ratio (fed/fasted)", "setting": "[2]; single 20 mg oral dose", "value": 1.14}, {"measurement": "AUC∞ Ratio (fed/fasted)", "setting": "[2]; single 20 mg oral dose", "value": 1.15}, {"measurement": "Cmax Ratio (fed/fasted)", "setting": "[2]; single 20 mg oral dose", "value": 1.49}]}]}
